# Tests used:
# Assay type in all cases: in vivo
# rapeseed = test: Test Example 5: effect on crop by foliage application, plastic box (symbol g); settings: 320 g/ha, 3 weeks after application
# Method in brief: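 Seeds were sown in spots in sterilized diluvial soil held in a plastic box 21 cm × 13 cm × 7 cm deep, covered with about 1.5 cm of soil, and grown in a greenhouse at 25° C. to 30° C.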
# Chenopodium album = test: Test Example 5: herbicidal effect by foliage application, plastic box (symbol O); settings: 320 g/ha, 3 weeks after application
# Method in brief: (§1)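 Herbicide, formulated as an emulsion and diluted in water, is sprayed onto the aerial parts of 14-day seedlings. These were grown at 25° C. to 30° C. in sterilized diluvial soil; effects are graded after 3 weeks.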
# Alopecurus myosuroides [1] = test: Test Example 4: herbicidal effect by soil treatment (symbol J); settings: application herbicide amount 320 g/ha
# Method in brief: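 Seeds were sown in sterilized diluvial soil, covered with about 1.5 cm of soil, and the soil surface was sprayed with a water-diluted emulsion of the compound at a predetermined rate. Plants grew in a greenhouse at 25° C. to 30° C.; effects were scored visually 3 weeks after application.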
# rice = test: Test Example 4: effect on crop by soil treatment (symbol b); settings: application herbicide amount 320 g/ha
# Method in brief: (§2)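 Diluvial soil (sterilized) in boxes; seeds placed spot-wise alongside weed species; ~1.5 cm covering soil. Greenhouse, 25–30° C.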
# Veronica persica = test: Test Example 5: herbicidal effect by foliage application, plastic box (symbol R); settings: 320 g/ha, 3 weeks after application
# Method in brief: as §1
# Digitaria ciliaris = test: Test Example 5: herbicidal effect by foliage application, plastic box (symbol F); settings: 320 g/ha, 3 weeks after application
# Method in brief: as §1
# Scirpus juncoides = test: Test Example 1: herbicidal activity, application before weed generation in submerged conditions (symbol B); settings: application herbicide amount 320 g/ha
# Method in brief: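 Application before weed emergence: an aqueous dilution of the emulsion formulation was poured onto the surface of 4 cm-deep floodwater on the day of sowing. Effect was judged after 3 weeks (greenhouse, 25–30 °C).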
# [2] = system: directly sowed rice plant; test: Test Example 3: effect on crop by foliage application, Wagner pot (symbol b); settings: application herbicide amount 320 g/ha
# Method in brief: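 Greenhouse culture at 25–30 °C of seeded rice, Cyperus difformis, Leptochloa chinensis and Echinochloa crus-galli var. crus-galli, in alluvial soil held under 0.1–0.5 cm of water in a Wagner pot.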
# [3] = system: Echinochloa crus-galli var. crus-galli; test: Test Example 5: herbicidal effect by foliage application, plastic box (symbol H); settings: 320 g/ha, 3 weeks after application
# Method in brief: as §1
# Leptochloa chinensis = test: Test Example 3: herbicidal effect by foliage application, Wagner pot (symbol D); settings: application herbicide amount 320 g/ha
# Method in brief: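 Weeds and rice were sown in alluvial soil under 0.1–0.5 cm of standing water and grown for 14 days in a 25–30 °C greenhouse. An emulsion of the compound, diluted in water to a set dose, was sprayed evenly onto the foliage. Effect was scored against fixed criteria 3 weeks after treatment.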
# beet = test: Test Example 4: effect on crop by soil treatment (symbol f); settings: application herbicide amount 320 g/ha
# Method in brief: as §2
# Apera spica-venti = test: Test Example 5: herbicidal effect by foliage application, plastic box (symbol L); settings: 320 g/ha, 3 weeks after application
# Method in brief: as §1
# Alopecurus myosuroides [4] = test: Test Example 5: herbicidal effect by foliage application, plastic box (symbol J); settings: 320 g/ha, 3 weeks after application
# Method in brief: as §1
# soybean = test: Test Example 4: effect on crop by soil treatment (symbol d); settings: application herbicide amount 320 g/ha
# Method in brief: as §2
smiles,measurement,setting,value
CCC(C)C(=O)CC1CC(O)=C(c2c(C)cc(C)cc2C)C1=O (stereo not drawn) [2-024],"g: rapeseed, effect on crop grade",rapeseed,3 (Herbicidal ratio of 40% or higher and lower than 70%)
same,"O: Chenopodium album, herbicidal effect grade",Chenopodium album,0 (Herbicidal ratio of 5% or lower (almost no effect))
same,"J: Alopecurus myosuroides, herbicidal effect grade",Alopecurus myosuroides [1],0 (Herbicidal ratio of 5% or lower (almost no effect))
same,"b: directly sowed rice plant, effect on crop grade",rice,5 (Herbicidal ratio of 90% or more (almost completely withered))
same,"R: Veronica persica, herbicidal effect grade",Veronica persica,2 (Herbicidal ratio of 20% or higher and lower than 40%)
same,"F: Digitaria ciliaris, herbicidal effect grade",Digitaria ciliaris,4 (Herbicidal ratio of 70% or higher and lower than 90%)
same,"Herbicidal effect grade, B: Scirpus juncoides",Scirpus juncoides,0 (Herbicidal ratio of 5% or lower (almost no effect))
same,"effect on crop b (directly sowed rice plant), grade 0-5",[2],5 (Herbicidal ratio of 90% or more (almost completely withered))
same,"H: Echinochloa crus-galli var. crus-galli, herbicidal effect grade",[3],5 (Herbicidal ratio of 90% or more (almost completely withered))
same,"herbicidal effect on D (Leptochloa chinensis), grade 0-5",Leptochloa chinensis,3 (Herbicidal ratio of 40% or higher and lower than 70%)
same,"f: beet, effect on crop grade",beet,0 (Herbicidal ratio of 5% or lower (almost no effect))
same,"L: Apera spica-venti, herbicidal effect grade",Apera spica-venti,2 (Herbicidal ratio of 20% or higher and lower than 40%)
same,"J: Alopecurus myosuroides, herbicidal effect grade",Alopecurus myosuroides [4],4 (Herbicidal ratio of 70% or higher and lower than 90%)
same,"d: soybean, effect on crop grade",soybean,0 (Herbicidal ratio of 5% or lower (almost no effect))
CON=C(C)CC1CC(O)=C(c2c(C)cc(-c3ccc(C(F)(F)F)cc3)cc2C)C1=O (mixture of isomers) [6-016],"g: rapeseed, effect on crop grade",rapeseed,1 (Herbicidal ratio of 5% or higher and lower than 20%)
same,"O: Chenopodium album, herbicidal effect grade",Chenopodium album,3 (Herbicidal ratio of 40% or higher and lower than 70%)
same,"J: Alopecurus myosuroides, herbicidal effect grade",Alopecurus myosuroides [1],0 (Herbicidal ratio of 5% or lower (almost no effect))
same,"b: directly sowed rice plant, effect on crop grade",rice,2 (Herbicidal ratio of 20% or higher and lower than 40%)
same,"R: Veronica persica, herbicidal effect grade",Veronica persica,3 (Herbicidal ratio of 40% or higher and lower than 70%)
same,"F: Digitaria ciliaris, herbicidal effect grade",Digitaria ciliaris,5 (Herbicidal ratio of 90% or more (almost completely withered))
same,"Herbicidal effect grade, B: Scirpus juncoides",Scirpus juncoides,0 (Herbicidal ratio of 5% or lower (almost no effect))
same,"effect on crop b (directly sowed rice plant), grade 0-5",[2],5 (Herbicidal ratio of 90% or more (almost completely withered))
same,"H: Echinochloa crus-galli var. crus-galli, herbicidal effect grade",[3],5 (Herbicidal ratio of 90% or more (almost completely withered))
same,"herbicidal effect on D (Leptochloa chinensis), grade 0-5",Leptochloa chinensis,5 (Herbicidal ratio of 90% or more (almost completely withered))
same,"f: beet, effect on crop grade",beet,0 (Herbicidal ratio of 5% or lower (almost no effect))
same,"L: Apera spica-venti, herbicidal effect grade",Apera spica-venti,5 (Herbicidal ratio of 90% or more (almost completely withered))
same,"J: Alopecurus myosuroides, herbicidal effect grade",Alopecurus myosuroides [4],1 (Herbicidal ratio of 5% or higher and lower than 20%)
same,"d: soybean, effect on crop grade",soybean,0 (Herbicidal ratio of 5% or lower (almost no effect))
CON=C(C)CC1CC(OCC#N)=C(c2c(C)cc(C)cc2C)C1=O (stereo not drawn) [1-013],"g: rapeseed, effect on crop grade",rapeseed,4 (Herbicidal ratio of 70% or higher and lower than 90%)
same,"O: Chenopodium album, herbicidal effect grade",Chenopodium album,0 (Herbicidal ratio of 5% or lower (almost no effect))
same,J (Alopecurus myosuroides) herbicidal effect grade,Alopecurus myosuroides [1],0 (Herbicidal ratio of 5% or lower (almost no effect))
same,b (directly sowed rice plant) effect on crop grade,rice,0 (Herbicidal ratio of 5% or lower (almost no effect))
same,"R: Veronica persica, herbicidal effect grade",Veronica persica,0 (Herbicidal ratio of 5% or lower (almost no effect))
same,"F: Digitaria ciliaris, herbicidal effect grade",Digitaria ciliaris,0 (Herbicidal ratio of 5% or lower (almost no effect))
same,"Herbicidal effect grade, B: Scirpus juncoides",Scirpus juncoides,0 (Herbicidal ratio of 5% or lower (almost no effect))
same,"effect on crop b (directly sowed rice plant), grade 0-5",[2],0 (Herbicidal ratio of 5% or lower (almost no effect))
same,"H: Echinochloa crus-galli var. crus-galli, herbicidal effect grade",[3],0 (Herbicidal ratio of 5% or lower (almost no effect))
same,"herbicidal effect on D (Leptochloa chinensis), grade 0-5",Leptochloa chinensis,2 (Herbicidal ratio of 20% or higher and lower than 40%)
same,f (beet) effect on crop grade,beet,0 (Herbicidal ratio of 5% or lower (almost no effect))
same,"L: Apera spica-venti, herbicidal effect grade",Apera spica-venti,4 (Herbicidal ratio of 70% or higher and lower than 90%)
same,"J: Alopecurus myosuroides, herbicidal effect grade",Alopecurus myosuroides [4],4 (Herbicidal ratio of 70% or higher and lower than 90%)
same,d (soybean) effect on crop grade,soybean,0 (Herbicidal ratio of 5% or lower (almost no effect))
"CON=C(C)CC1CC(O)=C(c2c(C)cc(C)cc2OC)C1=O (stereo not drawn) [6-037, 3-hydroxy-2-(2-methoxy-4,6-dimethylphenyl)-5-{2-(methoxyimino)propyl}cyclopent-2-enone]","g: rapeseed, effect on crop grade",rapeseed,5 (Herbicidal ratio of 90% or more (almost completely withered))
same,"O: Chenopodium album, herbicidal effect grade",Chenopodium album,3 (Herbicidal ratio of 40% or higher and lower than 70%)
same,"J: Alopecurus myosuroides, herbicidal effect grade",Alopecurus myosuroides [1],5 (Herbicidal ratio of 90% or more (almost completely withered))
same,"b: directly sowed rice plant, effect on crop grade",rice,5 (Herbicidal ratio of 90% or more (almost completely withered))
same,"R: Veronica persica, herbicidal effect grade",Veronica persica,3 (Herbicidal ratio of 40% or higher and lower than 70%)
same,"F: Digitaria ciliaris, herbicidal effect grade",Digitaria ciliaris,5 (Herbicidal ratio of 90% or more (almost completely withered))
same,"Herbicidal effect grade, B: Scirpus juncoides",Scirpus juncoides,5 (Herbicidal ratio of 90% or more (almost completely withered))
same,"effect on crop b (directly sowed rice plant), grade 0-5",[2],5 (Herbicidal ratio of 90% or more (almost completely withered))
same,"H: Echinochloa crus-galli var. crus-galli, herbicidal effect grade",[3],5 (Herbicidal ratio of 90% or more (almost completely withered))
same,"herbicidal effect on D (Leptochloa chinensis), grade 0-5",Leptochloa chinensis,5 (Herbicidal ratio of 90% or more (almost completely withered))
same,"f: beet, effect on crop grade",beet,0 (Herbicidal ratio of 5% or lower (almost no effect))
same,"L: Apera spica-venti, herbicidal effect grade",Apera spica-venti,5 (Herbicidal ratio of 90% or more (almost completely withered))
same,"J: Alopecurus myosuroides, herbicidal effect grade",Alopecurus myosuroides [4],5 (Herbicidal ratio of 90% or more (almost completely withered))
same,"d: soybean, effect on crop grade",soybean,2 (Herbicidal ratio of 20% or higher and lower than 40%)
CON=C(C)CC1CC(O)=C(c2c(C)cc(-c3ccc(C)cc3)cc2C)C1=O (mixture of isomers) [6-018],"g: rapeseed, effect on crop grade",rapeseed,3 (Herbicidal ratio of 40% or higher and lower than 70%)
same,"O: Chenopodium album, herbicidal effect grade",Chenopodium album,3 (Herbicidal ratio of 40% or higher and lower than 70%)
same,"J: Alopecurus myosuroides, herbicidal effect grade",Alopecurus myosuroides [1],5 (Herbicidal ratio of 90% or more (almost completely withered))
same,"b: directly sowed rice plant, effect on crop grade",rice,3 (Herbicidal ratio of 40% or higher and lower than 70%)
same,"R: Veronica persica, herbicidal effect grade",Veronica persica,4 (Herbicidal ratio of 70% or higher and lower than 90%)
same,"F: Digitaria ciliaris, herbicidal effect grade",Digitaria ciliaris,5 (Herbicidal ratio of 90% or more (almost completely withered))
same,"Herbicidal effect grade, B: Scirpus juncoides",Scirpus juncoides,5 (Herbicidal ratio of 90% or more (almost completely withered))
same,"effect on crop b (directly sowed rice plant), grade 0-5",[2],5 (Herbicidal ratio of 90% or more (almost completely withered))
same,"H: Echinochloa crus-galli var. crus-galli, herbicidal effect grade",[3],5 (Herbicidal ratio of 90% or more (almost completely withered))
same,"herbicidal effect on D (Leptochloa chinensis), grade 0-5",Leptochloa chinensis,5 (Herbicidal ratio of 90% or more (almost completely withered))
same,"f: beet, effect on crop grade",beet,0 (Herbicidal ratio of 5% or lower (almost no effect))
same,"L: Apera spica-venti, herbicidal effect grade",Apera spica-venti,5 (Herbicidal ratio of 90% or more (almost completely withered))
same,"J: Alopecurus myosuroides, herbicidal effect grade",Alopecurus myosuroides [4],5 (Herbicidal ratio of 90% or more (almost completely withered))
same,"d: soybean, effect on crop grade",soybean,0 (Herbicidal ratio of 5% or lower (almost no effect))
C=Cc1cc(C)c(C2=C(O)CC(CC(C)=NOC)C2=O)c(C)c1 (mixture of isomers) [6-031],"g: rapeseed, effect on crop grade",rapeseed,3 (Herbicidal ratio of 40% or higher and lower than 70%)
same,"O: Chenopodium album, herbicidal effect grade",Chenopodium album,3 (Herbicidal ratio of 40% or higher and lower than 70%)
same,"J: Alopecurus myosuroides, herbicidal effect grade",Alopecurus myosuroides [1],0 (Herbicidal ratio of 5% or lower (almost no effect))
same,"b: directly sowed rice plant, effect on crop grade",rice,0 (Herbicidal ratio of 5% or lower (almost no effect))
same,"R: Veronica persica, herbicidal effect grade",Veronica persica,1 (Herbicidal ratio of 5% or higher and lower than 20%)
same,"F: Digitaria ciliaris, herbicidal effect grade",Digitaria ciliaris,5 (Herbicidal ratio of 90% or more (almost completely withered))
same,"Herbicidal effect grade, B: Scirpus juncoides",Scirpus juncoides,0 (Herbicidal ratio of 5% or lower (almost no effect))
same,"effect on crop b (directly sowed rice plant), grade 0-5",[2],4 (Herbicidal ratio of 70% or higher and lower than 90%)
same,"H: Echinochloa crus-galli var. crus-galli, herbicidal effect grade",[3],5 (Herbicidal ratio of 90% or more (almost completely withered))
same,"herbicidal effect on D (Leptochloa chinensis), grade 0-5",Leptochloa chinensis,2 (Herbicidal ratio of 20% or higher and lower than 40%)
same,"f: beet, effect on crop grade",beet,0 (Herbicidal ratio of 5% or lower (almost no effect))
same,"L: Apera spica-venti, herbicidal effect grade",Apera spica-venti,4 (Herbicidal ratio of 70% or higher and lower than 90%)
same,"J: Alopecurus myosuroides, herbicidal effect grade",Alopecurus myosuroides [4],5 (Herbicidal ratio of 90% or more (almost completely withered))
same,"d: soybean, effect on crop grade",soybean,0 (Herbicidal ratio of 5% or lower (almost no effect))
